# From patent US10669272B2, “Substituted naphthyridinone compounds useful as T cell activators” (BRISTOL-MYERS SQUIBB COMPANY, priority 2018, dated 2020)
# Read-outs that look alike come from different tables or passages of the source.
# How the values were obtained:
# human DGKζ = molecular target: T1, human DGKζ (Homo sapiens, UniProt Q13574); assay: DGKζ LIPGLO assay (extruded liposome substrate), in vitro DGK inhibition; type: biochemical; conditions: read-out: DGKz LIPGLO IC50
# T1 construct: TVMV protease cleavage site (C); Hexa-His (C); made in house; host or cells: Sf9 insect cells (baculovirus, Bac-to-Bac)
# T1 sequence (Q13574 with tags, fused parts or gaps isoform Q13574-4): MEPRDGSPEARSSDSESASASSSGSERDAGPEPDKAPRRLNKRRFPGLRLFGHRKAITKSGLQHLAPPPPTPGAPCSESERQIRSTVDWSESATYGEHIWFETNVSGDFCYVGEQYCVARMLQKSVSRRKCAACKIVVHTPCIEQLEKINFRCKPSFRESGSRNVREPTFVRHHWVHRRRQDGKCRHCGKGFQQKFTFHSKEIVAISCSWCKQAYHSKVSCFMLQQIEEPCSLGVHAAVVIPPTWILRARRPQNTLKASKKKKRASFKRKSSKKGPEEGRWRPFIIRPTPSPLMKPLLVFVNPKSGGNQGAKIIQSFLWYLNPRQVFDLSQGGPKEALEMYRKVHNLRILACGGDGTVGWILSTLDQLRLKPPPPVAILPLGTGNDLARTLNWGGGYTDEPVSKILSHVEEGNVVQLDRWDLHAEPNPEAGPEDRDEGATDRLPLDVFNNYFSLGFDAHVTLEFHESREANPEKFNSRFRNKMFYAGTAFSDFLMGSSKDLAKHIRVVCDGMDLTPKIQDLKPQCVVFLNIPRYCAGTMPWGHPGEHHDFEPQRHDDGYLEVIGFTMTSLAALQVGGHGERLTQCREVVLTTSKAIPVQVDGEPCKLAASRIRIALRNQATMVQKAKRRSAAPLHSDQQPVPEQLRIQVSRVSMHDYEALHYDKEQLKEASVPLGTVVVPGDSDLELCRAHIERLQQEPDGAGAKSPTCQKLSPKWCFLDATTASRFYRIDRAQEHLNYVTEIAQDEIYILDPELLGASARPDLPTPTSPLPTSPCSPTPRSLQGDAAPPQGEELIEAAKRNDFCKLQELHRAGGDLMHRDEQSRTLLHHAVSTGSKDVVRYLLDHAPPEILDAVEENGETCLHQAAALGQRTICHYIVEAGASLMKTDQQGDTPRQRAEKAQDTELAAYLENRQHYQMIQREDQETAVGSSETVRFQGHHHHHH
# human DGKα = molecular target: T2, human DGKα (Homo sapiens, UniProt P23743); assay: DGKα LIPGLO assay (extruded liposome substrate), in vitro DGK inhibition; type: biochemical; conditions: read-out: DGKa LIPGLO IC50
# T2 construct: TVMV protease cleavage site (C); Hexa-His (C); made in house; host or cells: Sf9 insect cells (baculovirus, Bac-to-Bac)
# T2 sequence (P23743 with tags, fused parts or gaps): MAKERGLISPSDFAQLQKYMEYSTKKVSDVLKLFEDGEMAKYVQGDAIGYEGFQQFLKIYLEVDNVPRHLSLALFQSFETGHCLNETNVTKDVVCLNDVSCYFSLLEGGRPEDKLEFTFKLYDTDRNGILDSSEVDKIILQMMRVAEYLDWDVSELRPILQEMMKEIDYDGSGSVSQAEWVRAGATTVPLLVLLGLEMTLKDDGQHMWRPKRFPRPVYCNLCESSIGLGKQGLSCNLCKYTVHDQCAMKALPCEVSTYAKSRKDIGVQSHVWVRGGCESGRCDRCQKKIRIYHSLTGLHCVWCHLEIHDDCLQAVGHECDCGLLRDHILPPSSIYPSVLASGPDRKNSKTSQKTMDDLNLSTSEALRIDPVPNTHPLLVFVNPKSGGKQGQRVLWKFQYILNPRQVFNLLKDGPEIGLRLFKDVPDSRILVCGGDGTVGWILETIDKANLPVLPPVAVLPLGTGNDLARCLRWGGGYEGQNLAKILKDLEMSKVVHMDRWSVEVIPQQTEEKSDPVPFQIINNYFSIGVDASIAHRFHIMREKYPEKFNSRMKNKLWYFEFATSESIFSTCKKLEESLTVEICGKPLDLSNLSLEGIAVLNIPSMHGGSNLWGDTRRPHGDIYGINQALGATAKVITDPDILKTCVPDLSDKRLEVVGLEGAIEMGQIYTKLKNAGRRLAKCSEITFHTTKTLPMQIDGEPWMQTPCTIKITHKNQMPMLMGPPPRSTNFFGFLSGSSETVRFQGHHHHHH
SMILES,IC50 (human DGKζ; liposome (LIPGLO) assay),IC50 (human DGKα; liposome (LIPGLO) assay),IC50 (human DGKζ; DGKζ liposome (LIPGLO) assay),IC50 (human DGKα; DGKα liposome (LIPGLO) assay)
"COC[C@@H]1CN(c2cc(=O)n(C)c3ccc(C#N)nc23)[C@@H](C)CN1C(c1ccc(F)cc1)c1nc(C2CC2)no1 (stereo partly drawn) [Example 1393, 8-((2S,5S)-4-((3-cyclopropyl-1,2,4-oxadiazol-5-yl)(4-fluorophenyl)methyl)-5-(methoxymethyl)-2-methylpiperazin-1-yl)-5-methyl-6-oxo-5,6-dihydro-1,5-naphthyridine-2-carbonitrile]",0.016 µM,0.022 µM,,
"C[C@@H]1CN(c2cc(=O)n(C)c3ccc(C#N)nc23)[C@@H](C)CN1C(c1ccc(F)cc1)c1noc(C(C)(C)C)n1 (single isomer, unassigned) [Example 765]",,,0.13 µM,0.62 µM
"CC(c1ccc(OC(F)(F)F)cc1)N1C[C@@H](C)N(c2cc(=O)n(C)c3ccc(C#N)nc23)C[C@@H]1CO (single isomer, unassigned) [Example 1180]",1.4 µM,7.6 µM,,
"C[C@@H]1CN(c2cc(=O)n(C)c3ccc(C#N)nc23)[C@@H](C)CN1C(c1ccc(F)cc1)c1nnc(C2CC2)s1 (single isomer, unassigned) [Example 775]",,,6.6 µM,5.8 µM
"CC(c1cc(F)c(F)cc1Cl)N1C[C@H](C)N(c2cc(=O)n(C)c3ccc(C#N)nc23)C[C@H]1C (stereo partly drawn) [Example 486, 8-((2S,5R)-4-(1-(2-chloro-4,5-difluorophenyl)ethyl)-2,5-dimethylpiperazin-1-yl)-5-methyl-6-oxo-5,6-dihydro-1,5-naphthyridine-2-carbonitrile]",14 µM,27 µM,,
"C[C@@H]1CN(c2cc(=O)n(C)c3ccc(C#N)nc23)[C@@H](C)CN1C(c1ccc(F)cc1)c1ccc(P(C)(C)=O)cc1 (single isomer, unassigned) [Example 1293]",6.1 µM,100 µM,,
"CC[C@H]1CN(C(c2ccc(C)cc2)c2ccc(Cl)cc2)[C@H](C)CN1c1cc(=O)n(C)c2ccc(C#N)nc12 (single isomer, unassigned) [Example 1122]",0.84 µM,0.71 µM,,
Cc1ccc(CCN2C[C@H](C)N(c3cc(=O)n(C)c4ccc(C#N)nc34)C[C@H]2C)cc1 [Example 633],10 µM,6.7 µM,,
CC[C@H]1CN(C(c2cccc(F)c2)c2ccc(OC)cn2)[C@H](CC)CN1c1cc(=O)n(C)c2ccc(C#N)nc12 (stereo partly drawn) [Example 1047],0.27 µM,0.21 µM,,
CC(c1ccc(OC(F)F)cn1)N1C[C@H](C)N(c2cc(=O)n(C)c3ccc(C#N)nc23)C[C@H]1C (stereo partly drawn) [Example 653],1.1 µM,0.094 µM,,
C[C@@H]1CN(c2c(C(F)F)c(=O)n(C)c3ccc(C#N)nc23)[C@@H](C)CN1Cc1ccc(OC(F)(F)F)cc1F [Example 570],> 250 µM,> 250 µM,,
"COC(CN1C[C@H](C)N(c2cc(=O)n(C)c3ccc(C#N)nc23)C[C@H]1C)c1ccc(F)cc1 (stereo partly drawn) [Example 561, 8-((2S,5R)-4-(2-(4-fluorophenyl)-2-methoxyethyl)-2,5-dimethylpiperazin-1-yl)-5-methyl-6-oxo-5,6-dihydro-1,5-naphthyridine-2-carbonitrile]",10 µM,7.1 µM,,
C[C@@H]1CN(c2c(C#N)c(=O)n(C)c3ccc(C#N)nc23)CCN1C(c1ccc(Cl)cc1)c1ncccc1F (stereo partly drawn) [Example 913],,,5.5 µM,2.1 µM
"C[C@@H]1CN(c2cc(=O)n(C)c3ccc(C#N)nc23)[C@@H](C)CN1C(c1ccc(F)cc1)c1cncc(F)c1 (single isomer, unassigned) [Example 386]",4.6 µM,2.3 µM,,
"Cc1ncc(C(c2ccc(Cl)cc2)N2CCN(c3c(C#N)c(=O)n(C)c4ccc(C#N)nc34)C[C@H]2C)cn1 (single isomer, unassigned) [Example 413]",15 µM,12 µM,,
"C[C@@H]1CN(c2c(C#N)c(=O)n(C)c3ccc(C#N)nc23)CCN1C(c1ccc(Cl)cc1)c1ccc(F)cn1 (single isomer, unassigned) [Example 900]",,,0.8 µM,2.6 µM
Cc1ccc(C(c2ccc(F)cc2Cl)N2CCN(c3c(C#N)c(=O)n(C)c4ccc(C#N)nc34)C[C@H]2C)nc1 (stereo partly drawn) [Example 938],,,2.8 µM,5.9 µM
"C[C@@H]1CN(c2c(C#N)c(=O)n(C)c3ccc(C#N)nc23)[C@@H](C)CN1C(c1ccc(F)cc1)c1ccc(C(F)(F)F)cn1 (single isomer, unassigned) [Example 837]",,,35 µM,5.7 µM
Cc1cccc(CN2CCN(c3c(C#N)c(=O)n(C)c4ccc(C#N)nc34)C[C@H]2C)c1 [Example 1012],,,1.4 µM,0.35 µM
"C[C@@H]1CN(C(c2ccc(F)cc2)c2ccc(C#N)cc2)[C@@H](CO)CN1c1cc(=O)n(C)c2ccc(C#N)nc12 (single isomer, unassigned) [Example 1176]",2.9 µM,12 µM,,
"CC[C@H]1CN(C(c2ccc(C)cc2)c2ccc(Cl)cc2)[C@H](C)CN1c1cc(=O)n(C)c2ccc(C#N)nc12 (single isomer, unassigned) [Example 1121]",2.7 µM,1.8 µM,,
